What was measured:
[1] = test system: recombinant human CFTR carrying the premature stop codon (PTC) mutation G542X; assay: CFTR-PTC mutant translation readthrough, Nanoluc tagged CFTR luminescence (G542X cell line); format: cell-based; details: in combination with G418, G542X cell line; for CFTR G542X ACTIVITY Fold 10 μM G-418: fold over 10 μM G-418; for EC50: 16HBE cells
Protocol: 16HBE human bronchial epithelial cells (stably over-expressing recombinant human CFTR carrying the premature stop codon (PTC) mutation G542X or R1162X along with a Nanoluc tag incorporated into the CFTR channel within extracellular loop 4 in G542X cell line or C-terminus end in the R1162X cell line were seeded at 0.01×10^6 cells/well and grown in Minimal Essential Medium (MEM) as monolayers in 384 well plates and incubated at 37° C. with 5% CO2. Media was changed every other day until day of experiment. Agents to be evaluated were made up in separate 384 well, polypropylene plates at a 2X the final desired test concentration. Test agent 10-point concentration response curves were constructed using the Labcyte Echo 555 acoustic dispenser. Test agents were typically tested at a max final test concentrations of 50 μM with sequential 2-fold lower concentrations below this in the absence or presence of a fixed 10 μM concentration of the aminoglycoside G418 made up in MEM growth media (reduced Serum Media+HEPES Buffer+2.4 g/L Sodium Bicarbonate+L-Glutamine containing CFTR corrector VX-809 (3 μM)). Treatment with 10 μM G418 alone produced approximately 10% of the response observed with a maximally effective concentration of G418 (typically 125-250 μM). Test agent effects in presence of 10 μM G418 were compared to control wells on the plate containing a maximally effective concentration of G418 (typically 125-250 μM) made up in the same media. 25 ul of test agents/control solutions were transferred from the compound plate to the cell plate, which already contained 25 ul/well of cell plating media, using an Integra Viaflo 384. Cell plates were incubated with the compounds for 48 hours, at which time they were processed using Nanoluc luminescence Kit (Promega Nano-Glo Live Cell Assay System) to measure CFTR-PTC mutant translation readthrough. Luminescence was measured as follows. Cell plates were removed from the incubator and allowed to equilibrate to room temperature for 20 minutes. Media was removed from all wells and the plates were blotted to remove excess remaining volume. Nano-Glo Live Cell Substrate was diluted 1:20 in the appropriate amount of Nano-Glo LCS Dilution Buffer to accommodate the number of cell plates being tested. The substrate/dilution buffer mix was then diluted 1:3 with MEM media to make the appropriate volume for the number of plates being tested. The substrate/dilution buffer/OptiMEM mix was added across the Nanoluc testing cell plates and the plates were read for luminescence signal immediately. Test agent effects on CFTR translation readthrough was determined by normalizing any observed increase in luminescence induced by 48 hours pretreatment with test compound to the magnitude of luminescence increase produced by pretreatment with a maximally effective concentration of the reference readthrough enhancing agent G418 (125-250 μM).

[2] = test system: recombinant human CFTR carrying the premature stop codon (PTC) mutation R1162X; assay: CFTR-PTC mutant translation readthrough, Nanoluc tagged CFTR luminescence (R1162X cell line); format: cell-based; details: for CFTR R1162X ACTIVITY Fold 10 μM G-418: fold over 10 μM G-418, in combination with G418; for EC50: in combination with G418, 16HBE cells, read-out: CFTR R1162X ACTIVITY EC50
Procedure, shortened: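 16HBE cells stably expressing Nanoluc-tagged human CFTR with G542X or R1162X, in medium with 3 μM VX-809, treated 48 h at 37 °C with compound (10-point, 2-fold, top 50 μM final) alone or with 10 μM G418. Live-cell Nanoluc luminescence normalised to a maximally effective G418 (125-250 μM).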

SMILES | EC50 [1] [µM] | EC50 [2] [µM] | CFTR G542X ACTIVITY Fold 10 μM G-418 [1] | CFTR R1162X ACTIVITY Fold 10 μM G-418 [2]
Clc1cccc(Cl)c1COc1cnc(-n2cc(-c3ccccn3)nn2)nc1 [5-[(2,6-dichlorophenyl)methoxy]-2-[4-(2-pyridyl)triazol-1-yl]pyrimidine] | < 1 | < 1 | A′ (A′ = ≥10X) | A′ (A′ = ≥10X)
OCc1nc(-c2ccc(OCc3c(Cl)cccc3Cl)cn2)no1 [[3-[5-[(2,6-dichlorophenyl)methoxy]-2-pyridyl]-1,2,4-oxadiazol-5-yl]methanol] | 1 to 10 | 1 to 10 | A′ (A′ = ≥10X) | A′ (A′ = ≥10X)
OCC(O)c1ccc(OCc2c(Cl)cccc2Cl)cn1 (stereo not shown) [1-[5-[(2,6-dichlorophenyl)methoxy]-2-pyridyl]ethane-1,2-diol] | > 10 | 1 to 10 | A′ (A′ = ≥10X) | B′ (B′ = ≥5X to <10X)
O=C1NC2(CCCC2)C(=O)N1c1ncc(OCc2c(Cl)cccc2Cl)cn1 | 1 to 10 | > 10 | A′ (A′ = ≥10X) | A′ (A′ = ≥10X)
Cc1cccc(C(C)(F)F)c1COc1ccc(-n2cc(CO)nn2)cc1 | 1 to 10 | 1 to 10 | B′ (B′ = ≥5X to <10X) | B′ (B′ = ≥5X to <10X)
O=C1N[C@H](CO)C(=O)N1c1ccc(OCc2c(Cl)cccc2Cl)cn1 | > 10 | > 10 | A′ (A′ = ≥10X) | B′ (B′ = ≥5X to <10X)
OCc1nc(-c2ccc(OCc3c(Cl)cccc3Cl)cc2)co1 [[4-[4-[(2,6-dichlorophenyl)methoxy]phenyl]oxazol-2-yl]methanol] | 1 to 10 | 1 to 10 | A′ (A′ = ≥10X) | A′ (A′ = ≥10X)
OCc1cn(-c2ccc(OCc3c(Cl)cccc3C(F)(F)F)cc2)nn1 [[1-[4-[[2-chloro-6-(trifluoromethyl)phenyl]methoxy]phenyl]triazol-4-yl]methanol] | 1 to 10 | 1 to 10 | A′ (A′ = ≥10X) | A′ (A′ = ≥10X)
O=C1OC(CO)CN1c1ncc(CCc2c(Cl)cccc2Cl)cn1 (stereo not shown) | > 10 | > 10 |  | 
OCc1cc(-c2ccc(OCc3c(Cl)cccc3Cl)cc2)no1 [[3-[4-[(2,6-dichlorophenyl)methoxy]phenyl]isoxazol-5-yl]methanol] | 1 to 10 | 1 to 10 | A′ (A′ = ≥10X) | A′ (A′ = ≥10X)
O=C1OC(CO)CN1c1ccc(OCc2c(Cl)cccc2OC(F)F)cc1 (stereo not shown) | 1 to 10 | > 10 | C′ (C′ = <5X) | B′ (B′ = ≥5X to <10X)
O=C1OC(CO)CN1c1ccc(OCc2c(Cl)cccc2C2CC2)cc1 (stereo not shown) | 1 to 10 | 1 to 10 | A′ (A′ = ≥10X) | A′ (A′ = ≥10X)
OCc1ccn(-c2ncc(OC(F)(F)c3c(Cl)cccc3Cl)cn2)n1 | > 10 | > 10 |  | 
C=C1NC(=O)N(c2ccc(OCc3c(Cl)cccc3Cl)cn2)C1=O | 1 to 10 | 1 to 10 | B′ (B′ = ≥5X to <10X) | B′ (B′ = ≥5X to <10X)

Second part, led by results:

EC50 [1] [µM] | EC50 [2] [µM] | SMILES | CFTR G542X ACTIVITY Fold 10 μM G-418 [1] | CFTR R1162X ACTIVITY Fold 10 μM G-418 [2]
1 to 10 | 1 to 10 | Cc1cccc(C(F)(F)F)c1COc1ccc(-n2cnc(Cn3cnc(CO)c3)c2)nc1 | A′ (A′ = ≥10X) | A′ (A′ = ≥10X)
1 to 10 | 1 to 10 | CC(=O)N1CCN(c2ncc(OCc3c(C)cccc3C(F)(F)F)cn2)CC1CN (racemic) | C′ (C′ = <5X) | C′ (C′ = <5X)
1 to 10 | 1 to 10 | Cc1cccc(C(F)(F)F)c1COc1ccc(N2C(=O)NC(C)(C)C2=O)nc1 | A′ (A′ = ≥10X) | B′ (B′ = ≥5X to <10X)
1 to 10 | 1 to 10 | Cc1cccc(C(F)(F)F)c1COc1cnc(N2CC(=O)N(C)C2=O)nc1 | A′ (A′ = ≥10X) | A′ (A′ = ≥10X)
1 to 10 | > 10 | O=C1O[C@H](CO)CN1c1ncc(OCc2c(Cl)cccc2C(F)(F)F)cn1 [(5S)-3-(5-{[2-chloro-6-(trifluoromethyl)phenyl]methoxy}pyrimidin-2-yl)-5-(hydroxymethyl)-1,3-oxazolidin-2-one] | C′ (C′ = <5X) | C′ (C′ = <5X)
< 1 | 1 to 10 | CC(=O)NC[C@@H]1CN(c2ncc(OCc3c(C)cccc3C(F)(F)F)cn2)CCO1 | A′ (A′ = ≥10X) | A′ (A′ = ≥10X)
1 to 10 | 1 to 10 | Clc1cccc(Cl)c1COc1cnc(N2C[C@H]3COC[C@H]3C2)nc1 | A′ (A′ = ≥10X) | A′ (A′ = ≥10X)
1 to 10 | 1 to 10 | OCC1CN(c2ncc(OCc3c(Cl)cccc3Cl)cn2)CCN1 (stereo not shown) [[4-[5-[(2,6-dichlorophenyl)methoxy]pyrimidin-2-yl]piperazin-2-yl]methanol] | A′ (A′ = ≥10X) | A′ (A′ = ≥10X)
1 to 10 | 1 to 10 | Cc1cccc(C(F)(F)F)c1COc1ccc(N2CCOC(CO)C2)nc1 (stereo not shown) | A′ (A′ = ≥10X) | A′ (A′ = ≥10X)
< 1 | < 1 | NC(=O)N1CCC(c2ncc(OCc3c(Cl)cccc3C(F)(F)F)cn2)CC1 | A′ (A′ = ≥10X) | A′ (A′ = ≥10X)
1 to 10 | 1 to 10 | Cc1cccc(C(F)(F)F)c1COc1cnc(N2CC(CO)OCC2=O)nc1 (stereo not shown) | A′ (A′ = ≥10X) | A′ (A′ = ≥10X)
1 to 10 | 1 to 10 | CN1CC(=O)N(c2ccc(OCc3c(Cl)cccc3C(F)(F)F)cn2)C1=O | A′ (A′ = ≥10X) | C′ (C′ = <5X)
1 to 10 | 1 to 10 | Cc1cccc(C(F)(F)F)c1COc1cnc(N2CC[C@H](C(N)=O)C2)nc1 | A′ (A′ = ≥10X) | A′ (A′ = ≥10X)
1 to 10 | 1 to 10 | CC(=O)NCC1CN(c2ccc(OCc3c(C)cccc3C(F)(F)F)cc2)C(=O)O1 (stereo not shown) | A′ (A′ = ≥10X) | A′ (A′ = ≥10X)
< 1 | 1 to 10 | OCc1cn(-c2ccc(OCc3c(Cl)cccc3C(F)(F)F)cn2)cn1 | A′ (A′ = ≥10X) | A′ (A′ = ≥10X)
< 1 | 1 to 10 | Cc1cccc(C(F)(F)F)c1COc1ccc(-n2cnc(CN)n2)cc1 | A′ (A′ = ≥10X) | A′ (A′ = ≥10X)
< 1 | 1 to 10 | Cc1cccc(C(F)(F)F)c1COc1cnc(N2CCC(C(N)=O)C2)nc1 (stereo not shown) | A′ (A′ = ≥10X) | A′ (A′ = ≥10X)
< 1 | < 1 | Cc1cccc(C(F)(F)F)c1COc1ccc(-n2ncc(CO)n2)nc1 | A′ (A′ = ≥10X) | A′ (A′ = ≥10X)

— patent US20250228865A1, “COMPOUNDS FOR ENHANCING READ THROUGH OF GENES CONTAINING PREMATURE TERMINATION CODONS AND METHODS FOR MAKING AND USING THE SAME” (Sanofi US Services Inc., priority 2022, published 2025)
